Reference: US8299069B2, “2-(2-oxoindoline-3-ylidene)methyl-5-(2-hydroxy-3-morpholin-4-yl-propyl)-6,7-dihydro-1H-pyrrol[3,2-C]pyridine-4(5H)-one compounds and use as protein kinase inhibitors” (Jiangsu Hengrui Medicine Co., Ltd., priority 2007, dated 2012)

How the values were obtained:
HUVEC cell = experiment: Cell proliferation inhibition assay (SRB) on HUVEC cells highly expressing VEGFR; conditions: Homo sapiens, 72 h, read-out: IC50 (VEGFR/HUVEC)
Excerpt: The cellular assay described here is used to test anti-angiogenesis and proliferation inhibition activity and effect of the compounds through VEGFR on the cancer cells in vitro. The effect and activity is represented by the IC50 value that kills the cancer cells. The general procedures of the assay are as follows: The Homo sapiens cells that highly expressing VEGFR were chosen and seeded to 96-well cell culture plate at a suitable concentration (e.g., 5000 cells/mL medium). […] Then, the cell culture medium was replaced by fresh one with testing compounds added in it at serial concentrations (general 6 or 7 concentrations). Then the cells were put back to the incubator and cultured for 72 hours continuously. 72 hours later, the treated compounds were assayed for their proliferation status by using Sulforhodamine B (SRB) method. IC50 of compounds on tested cells was calculated by using data of inhibition rate of serial concentrations of the testing compounds.
The following protocol is used to assay the cell toxicity (anti-proliferation activity, which is expressed as IC50 value) of testing compounds of the invention on HUVEC cell: • 1. HUVEC cells were cultured with growth media (DMEM/F12, supplemented with 10% FBS) in 100 mm corning culture plate at 37° C., 5% CO2 till confluency. • 2. HUVEC cells were washed with cold PBS solution, then the cells were harvested by trypsinization and seeded in corning 96-well cell culture plates at a concentration of 50,000 cells/ml, 6 empty wells were left on each plate as plate background. • 3. The cells were cultured in 96-well plates at 37° C., 5% CO2, till 85% confluency. • 4. The compound stock solution was prepared by using DMSO to solve candidate compounds to a concentration of 20 mM. Then DMSO was used to dilute the stock solution to a serial concentration to prepare testing compound solution samples (e.g., 2 mM, 1 mM, 0.2 mM, 20 μM, 2 μM, 0.2 μM). • 5. Cell culture medium (DMEM/F12+10% FBS) was used to dilute the compound solution prepared previously. […] Background absorbance was measured in wells incubated only with growth medium. • 11. […]

[1] = target: recombinant human VEGF-R2 (Homo sapiens, UniProt P35968); experiment: VEGF-R2 kinase assay (ELISA, DELFIA time-resolved fluorescence)
recombinant human VEGF-R2, sequence (P35968 789-1356 limits assumed): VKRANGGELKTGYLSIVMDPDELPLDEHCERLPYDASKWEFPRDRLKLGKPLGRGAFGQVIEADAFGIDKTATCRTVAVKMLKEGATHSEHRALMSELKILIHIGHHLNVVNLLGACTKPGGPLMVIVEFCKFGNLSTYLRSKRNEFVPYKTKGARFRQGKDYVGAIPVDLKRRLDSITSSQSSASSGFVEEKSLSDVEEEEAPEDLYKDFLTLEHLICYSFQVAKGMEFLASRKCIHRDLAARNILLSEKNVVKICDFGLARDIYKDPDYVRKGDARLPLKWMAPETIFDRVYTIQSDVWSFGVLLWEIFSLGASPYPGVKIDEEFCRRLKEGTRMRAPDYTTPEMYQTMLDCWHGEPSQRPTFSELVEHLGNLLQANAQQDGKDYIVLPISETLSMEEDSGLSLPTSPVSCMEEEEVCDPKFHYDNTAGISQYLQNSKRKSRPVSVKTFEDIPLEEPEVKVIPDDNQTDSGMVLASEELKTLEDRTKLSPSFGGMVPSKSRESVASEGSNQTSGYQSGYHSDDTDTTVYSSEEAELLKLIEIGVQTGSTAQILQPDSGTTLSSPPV
Description: This assay is used to measure the in vitro kinase activity of recombinant human VEGF-R2 in an enzyme-linked immunosorbent assay (ELISA).
• a. […] Stopping solution: 50 mM EDTA, pH 8.0. • d. DELFIA® Europium-labeled Anti-mouse IgG (PerkinElmer Life Sciences #AD0124). • e. […] DELFIA® Streptavidin coated, 96-well, yellow plate (PerkinElmer Life Sciences #AAAND-0005). • g. Recombinant human VEGFR-2 kinase (supplied in 50 mM Tris-HCl, pH8.0, 100 mM NaCl, 5 mM DTT, 15 mM reduced glutathione and 20% glycerol). […] HTScan™ Tyrosine Kinase Buffer (4×). • 1× Kinase Buffer: • 60 mM HEPES • 5 mM MgCl2 • 5 mM MnCl2 • 3 μM Na3VO4 • l. […] Procedure
The following protocol was used: • 1. […] VEGFR-2 kinase was transferred from −80° C. to ice immediately, and the kinase was thawed on ice. • 4. 2.2 μs VEGFR-2 enzyme was added to enzyme tube. • 5. […] 0.75 ml of DTT/Kinase buffer was transferred to the enzyme tube to prepare 4× reaction cocktail, and 7.5 μl 4× reaction cocktail was added to each assay. • 7. 2 μl ATP (10 mM) was added to 498 μl dH2O, and 7.5 μl was added to each assay. […] The reaction tube was incubated at 25° C. for 30 minutes. • 9. 30 μl/assay stopping solution (50 mM EDTA, pH 8.0) was added to stop the reaction. • 10. 25 μl of each reaction and 75 μl dH2O were transferred to a 96-well streptavidin coated plate, with shaking at room temperature for 60 minutes. • 11. Each well was washed for three times with 200 μl PBS-T buffer. Plate was patted on paper towel to remove excess liquid. • 12. […] The plate was incubated with shaking at room temperature for 60 minutes. • 14. Washing step was carried out as described in step 11. • 15. […] The plate was incubated with shaking at room temperature for 30 minutes. • 17. Each well was washed for five times with 200 μl PBS-T buffer. Plate was patted on paper towel to remove excess liquid. • 18. 100 μl DELFIA® Enhancement Solution was added to each well. • 19. The plate was incubated with shaking at room temperature for 5 minutes. • 20. The fluorescence intensity was detected at wavelength of 615 nm in a time-resolved fluorescence mode on plate reader.
The IC50 value can be calculated from the IRs of compounds at different concentration gradients.

Structure (SMILES)	IC50 [1] [nM]	IC50 (HUVEC cell) [nM]
Cc1c(/C=C2\C(=O)Nc3ccc(Cl)cc32)[nH]c2c1C(=O)N(C[C@H](O)CN1CCOCC1)CC2 [Example 2, (R,Z)-2-(5-Chloro-2-oxo-1,2-dihydro-indol-3-ylidenemethyl)-5-(2-hydroxy-3-morpholin-4-yl-propyl)-3-methyl-1,5,6,7-tetrahydro-pyrrolo[3,2-c]pyridin-4-one]		2400
Cc1c(/C=C2\C(=O)Nc3cccc(-c4cccc(F)c4F)c32)[nH]c2c1C(=O)N(C[C@H](O)CN1CCOCC1)CC2 [Example 3, 2-[(Z)-4-(2,3-Difluoro-phenyl)-2-oxo-1,2-dihydro-indol-3-ylidenemethyl]-5-[(R)-2-hydroxy-3-morpholin-4-yl-propyl]-3-methyl-1,5,6,7-tetrahydro-pyrrolo[3,2-c]pyridin-4-one]		840
Cc1c(/C=C2\C(=O)Nc3ccc(Br)cc32)[nH]c2c1C(=O)N(C[C@H](O)CN1CCOCC1)CC2 [Example 4, (R,Z)-2-(5-Bromo-2-oxo-1,2-dihydro-indol-3-ylidenemethyl)-5-(2-hydroxy-3-morpholin-4-yl-propyl)-3-methyl-1,5,6,7-tetrahydro-pyrrolo[3,2-c]pyridin-4-one]	998	
Cc1c(/C=C2\C(=O)Nc3cccc(-c4c(F)cccc4F)c32)[nH]c2c1C(=O)N(C[C@@H](O)CN1CCOCC1)CC2 [Example 20, (S,Z)-2-[4-(2,6-Difluoro-phenyl)-2-oxo-1,2-dihydro-indol-3-ylidenemethyl]-5-(2-hydroxy-3-morpholin-4-yl-propyl)-3-methyl-1,5,6,7-tetrahydro-pyrrolo[3,2-c]pyridin-4-one]		10

Further lines, with some results ahead:

IC50 [1] [nM]	Structure (SMILES)	IC50 (HUVEC cell) [nM]
3	Cc1c(/C=C2\C(=O)Nc3cc(NC(=O)C(C)(C)O)c(F)cc32)[nH]c2c1C(=O)N(C[C@@H](O)CN1CCOCC1)CC2 [Example 11, (S,Z)-N-{5-Fluoro-3[5-(2-hydroxy-3-morpholin-4-yl-propyl)-3-methyl-4-oxo-4,5,6,7-tetrahydro-1H-pyrrolo[3,2-c]pyridin-2-ylmethylene]-2-oxo-2,3-dihydro-1H-indol-6-yl}-2-hydroxy-2-methyl-propionamide]	
130	COCC(=O)Nc1cc2c(cc1F)/C(=C/c1[nH]c3c(c1C)C(=O)N(C[C@@H](O)CN1CCOCC1)CC3)C(=O)N2 [Example 13, (S,Z)-N-{5-Fluoro-3-[5-(2-hydroxy-3-morpholin-4-yl-propyl)-3-methyl-4-oxo-4,5,6,7-tetrahydro-1H-pyrrolo[3,2-c]pyridin-2-ylmethylene]-2-oxo-2,3-dihydro-1H-indol-6-yl}-2-methoxy-acetamide]	
110	COCC(=O)Nc1cc2c(cc1F)/C(=C/c1[nH]c3c(c1C)C(=O)N(C[C@H](O)CN1CCOCC1)CC3)C(=O)N2 [Example 16, (R,Z)-N-{5-Fluoro-3-[5-(2-hydroxy-3-morpholin-4-yl-propyl)-3-methyl-4-oxo-4,5,6,7-tetrahydro-1H-pyrrolo[3,2-c]pyridin-2-ylmethylene]-2-oxo-2,3-dihydro-1H-indol-6-yl}-2-methoxy-acetamide]	
4	Cc1c(/C=C2\C(=O)Nc3cc(NC(=O)C(C)(C)O)c(F)cc32)[nH]c2c1C(=O)N(C[C@H](O)CN1CCOCC1)CC2 [Example 17, (R,Z)-N-{5-Fluoro-3-[5-(2-hydroxy-3-morpholin-4-yl-propyl)-3-methyl-4-oxo-4,5,6,7-tetrahydro-1H-pyrrolo[3,2-c]pyridin-2-ylmethylene]-2-oxo-2,3-dihydro-1H-indol-6-yl}-2-hydroxy-2-methyl-propionamide]	
